The results in this text go back to patent US20240116948A1, “PYRIDO OXAZINE DERIVATIVES AS ALK5 INHIBITORS” (CHIESI FARMACEUTICI S.P.A., priority 2020, published 2024).

Molecules are shown by their SMILES.

For this assay, the target named is human ALK5 (Homo sapiens (Human), UniProt P36897). In words: ADP-GLO Kinases assay, inhibition of ALK5 kinase activity. The class given is biochemical. To be noted: Table 12; compounds classified in term of potency; ATP at Km, 25° C.; read-out: ALK5 IC50. On the procedure:
The enzymatic activity of compounds of the present invention was monitored measuring the formation of ADP using the ADP-GLO Kinases assay. Following the incubation of the purified enzyme, a substrate and ATP, the produced ADP was converted into ATP, which in turn was converted into light by Ultra-Glo Luciferase. The luminescent signal positively correlated with ADP amount and kinase activity. Briefly, the kinase reaction was performed by incubating 2.6 nM of the purified, commercially available human ALK5 (recombinant TGF 31 N-term GST-tagged, 80-end), a final concentration of TGFβ1 peptide 94.5 μM (Promega, T36-58) and ultra-pure ATP (Promega V915B). The ATP concentration was set at the Km value (concentration of substrate which permits the enzyme to achieve half maximal velocity (Vmax)) of ALK5 (5 μM). All reactions/incubations were performed at 25° C. Compound and ALK5 kinase were mixed and incubated for 15 mins. Reactions were initiated by addition of ATP at a final concentration in the assay of […]. After an incubation of 150 min, the reaction was stopped, and ADP production detected with ADP-Glo kit according to manufacturer's indications. The assay was performed in 384-well format and was validated using a selection of reference compounds that was tested in 11 point concentration-response curve.
Compounds of the examples C1 and C2 were tested in the same in vitro assay described above.

human ALK5, sequence (P36897 80-503 limits assumed): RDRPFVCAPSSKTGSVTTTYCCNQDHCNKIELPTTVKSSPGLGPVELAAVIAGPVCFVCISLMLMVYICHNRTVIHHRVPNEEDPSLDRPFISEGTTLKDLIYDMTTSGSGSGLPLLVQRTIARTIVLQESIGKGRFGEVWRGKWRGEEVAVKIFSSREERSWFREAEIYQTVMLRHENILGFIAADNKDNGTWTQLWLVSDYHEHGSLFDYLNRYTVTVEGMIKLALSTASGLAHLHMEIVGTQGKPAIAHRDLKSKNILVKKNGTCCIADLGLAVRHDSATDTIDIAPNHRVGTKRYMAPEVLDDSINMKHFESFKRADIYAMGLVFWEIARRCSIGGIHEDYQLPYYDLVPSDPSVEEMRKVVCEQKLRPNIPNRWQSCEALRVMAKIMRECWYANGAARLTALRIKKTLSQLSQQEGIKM

Turning to `O=C(NCCN1CCOCC1)c1cncc(-c2cc(-c3cc(Cl)ccc3F)nc3c2OCCN3)c1` [Example 11, 5-[6-(5-chloro-2-fluorophenyl)-2H,3H,4H-pyrido[3,2-b][1,4]oxazin-8-yl]-N-[2-(morpholin-4-yl)ethyl]pyridine-3-carboxamide], the half-inhibitory concentration (IC50) fell in the range of 5 to 10 nM.
The result for `CNC(=O)c1cncc(-c2cc(-c3cc(Cl)ccc3F)nc3c2OCCN3)c1` [Example 7, 5-[6-(5-chloro-2-fluorophenyl)-2H,3H,4H-pyrido[3,2-b][1,4]oxazin-8-yl]-N-methylpyridine-3-carboxamide] reads 5 to 10 nM; that for `Oc1cncc(-c2cc(-c3cc(Cl)ccc3F)nc3c2OCCN3)c1` [Example 29, 5-[6-(5-chloro-2-fluorophenyl)-2H,3H,4H-pyrido[3,2-b][1,4]oxazin-8-yl]pyridin-3-ol], 1 to 5 nM; that for `Cc1cccc(-c2cc(-c3cncc4ccccc34)c3c(n2)NCCO3)n1` [Example 3, 4-[6-(6-methylpyridin-2-yl)-2H,3H,4H-pyrido[3,2-b][1,4]oxazin-8-yl]isoquinoline], 1 to 5 nM.
As for `CNCCCNC(=O)c1cncc(-c2cc(-c3cc(Cl)ccc3F)nc3c2OCCN3)c1` [Example 32, 5-[6-(5-chloro-2-fluorophenyl)-2H,3H,4H-pyrido[3,2-b][1,4]oxazin-8-yl]-N-[3-(methylamino)propyl]pyridine-3-carboxamide], the figure is 1 to 5 nM.
In the case of `Fc1ccc(Cl)cc1-c1cc(-c2cccnc2)c2c(n1)NCCO2` [Example 1, 3-[6-(5-chloro-2-fluorophenyl)-2H,3H,4H-pyrido[3,2-b][1,4]oxazin-8-yl]pyridine], the IC50 was in the range of 5 to 10 nM.
The result for `O=C(CCN(CCO)CCO)Nc1cncc(-c2cc(-c3cc(Cl)ccc3F)nc3c2OCCN3)c1` [Example 43, 3-[bis(2-hydroxyethyl)amino]-N-{5-[6-(5-chloro-2-fluorophenyl)-2H,3H,4H-pyrido[3,2-b][1,4]oxazin-8-yl]pyridin-3-yl}propanamide] reads 1 to 5 nM; that for `O=C(NCCN1CCCC1)c1cncc(-c2cc(-c3cc(Cl)ccc3F)nc3c2OCCN3)c1` [Example 26, 5-[6-(5-chloro-2-fluorophenyl)-2H,3H,4H-pyrido[3,2-b][1,4]oxazin-8-yl]-N-[2-(pyrrolidin-1-yl)ethyl]pyridine-3-carboxamide], 5 to 10 nM.
On to `Fc1ccc(Cl)cc1-c1cc(-c2cncc(OC3CCOC3)c2)c2c(n1)NCCO2` (stereo not shown) [Example 36, 3-[6-(5-chloro-2-fluorophenyl)-2H,3H,4H-pyrido[3,2-b][1,4]oxazin-8-yl]-5-(oxolan-3-yloxy)pyridine], for which the 50% inhibitory concentration (IC50) is 1 to 5 nM.
As for `COC(=O)c1cncc(-c2cc(-c3cc(Cl)ccc3F)nc3c2OCCN3)c1` [Example 19, Methyl 5-[6-(5-chloro-2-fluorophenyl)-2H,3H,4H-pyrido[3,2-b][1,4]oxazin-8-yl]pyridine-3-carboxylate], the figure is 1 to 5 nM; as for `CN1CCN(CCC(=O)Nc2cncc(-c3cc(-c4cc(Cl)ccc4F)nc4c3OCCN4)c2)CC1=O` [Example 46, N-{5-[6-(5-chloro-2-fluorophenyl)-2H,3H,4H-pyrido[3,2-b][1,4]oxazin-8-yl]pyridin-3-yl}-3-(4-methyl-3-oxopiperazin-1-yl)propanamide], 5 to 10 nM; as for `CN1CCN(CCC(=O)Nc2cncc(-c3cc(-c4cc(Cl)ccc4F)nc4c3OCCN4)c2)CC1` [Example 38, N-{5-[6-(5-chloro-2-fluorophenyl)-2H,3H,4H-pyrido[3,2-b][1,4]oxazin-8-yl]pyridin-3-yl}-3-(4-methylpiperazin-1-yl)propanamide], 1 to 5 nM.
As for `NC(=O)c1cncc(-c2cc(-c3cc(Cl)ccc3F)nc3c2OCCN3)c1` [Example 6, 5-[6-(5-chloro-2-fluorophenyl)-2H,3H,4H-pyrido[3,2-b][1,4]oxazin-8-yl]pyridine-3-carboxamide], the figure is 1 to 5 nM.
